# Measured values from US20240109865A1, “INDAZOLE COMPOUNDS AS KINASE INHIBITORS” (TYRA BIOSCIENCES, INC., priority 2020, published 2024).
# What was measured:
# [1] = target: FGFR3-BAIAP2L1 Ba/F3 cells (Homo sapiens, UniProt P22607); experiment: Ba/F3 cell viability assay (CellTiter-Glo 2.0), FGFR3-BAIAP2L1 Ba/F3; assay type: cell-based; conditions: for Ba/F3 FGFR1/FGFR3 Selectivity: FGFR3 > FGFR1 selectivity ratio in Ba/F3 FGFR fusion cell based assays; for IC50: read-out: Ba/F3 Cells FGFR3 (IC50 nM), FGFR3-BAIAP2L1 Ba/F3 cells, 48 hours, Cell Titer Glo 2.0
# Description: (§1) Experimental Purpose: Recombinant kinase fusions are transduced into parental Ba/F3, which becomes dependent upon this constitutive kinase activity for IL3-independent survival. Inhibition of kinase activity leads to cell death, which is monitored using CellTiter-Glo® 2.0 (Promega) which measures intracellular ATP concentration that in turn serves as a marker for viability. FGFR1-BCR Ba/F3 and FGFR3-BAIAP2L1 Ba/F3 were obtained from Advanced Cellular Dynamics (Seattle, WA)
# (§2) Cell Viability Assay Procedure: Cell Titer-Glo® 2.0 Luminescent cell viability assay reagent was purchased from Promega (Madison, WI). FGFR1-BCR Ba/F3 and FGFR3-BAIAP2L1 Ba/F3 cells were cultured in RPMI1640 media supplemented with 10% fetal bovine serum. Cultures were maintained at 37° C. in a humidified atmosphere of 5% C02 and 95% air.
# (§3) Cells were plated in 96-well clear bottom/white plates (Corning #3903) at 10,000 cells/well in 100 μl of media, incubated overnight. The next day, test compound DMSO stock solutions were made at 10 mM and 2 μM final concentration. Compounds were then added to cells in a 9-dose, 10-fold dilution series starting at 30 μM with an HP 300e Digital Dispenser (each dose was applied in triplicate). DMSO was backfilled to each well up to 301 nL total volume of test compound+DMSO, and a total of 301 nL DMSO was added to a control/no test compound well in triplicate. The cells in cell culture plates were incubated with the compounds at 37° C. and 5% C02 for 48 hours. Then 50 μl of Cell Titer Glo 2.0 reagent was added to each well of the cell culture plates. The contents were covered from light and mixed on an orbital shaker at room temperature for 10 min. Luminescence was recorded by a Synergy H1 Microplate Reader (Biotek, Winooski, VT). Cells were assessed as a percentage of DMSO only treated control cells. Curves were plotted and IC50 values were calculated using the GraphPad Prism 8 program based on a sigmoidal dose-response equation (4 parameter).
# FGFR1-BCR Ba/F3 cells = FGFR1-BCR Ba/F3 cells (Homo sapiens, UniProt P11362); experiment: Ba/F3 cell viability assay (CellTiter-Glo 2.0), FGFR1-BCR Ba/F3; assay type: cell-based; conditions: read-out: Ba/F3 Cells FGFR1 (IC50 nM), 48 hours, Cell Titer Glo 2.0
# Description: as §1, §2, §3
# FGFR1 = FGFR1 (Homo sapiens (Human), UniProt P11362); experiment: Kinase assay, binding constants (Kd), kinase-tagged T7 phage, qPCR
# In short: (§4)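 Competition binding: T7 phage-tagged kinase + biotin-ligand beads + compound (11 pts, 3-fold, 0.9% DMSO). Elution 30 min RT with free ligand; qPCR quantitation. Kd via Hill fit, slope −1.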
# FGFR2 = FGFR2 (Homo sapiens (Human), UniProt P21802); experiment: as above
# In short: as §4
# FGFR3 = FGFR3 (Homo sapiens (Human), UniProt P22607); experiment: as above
# In short: as §4
# FGFR3 (V555M) = FGFR3 (V555M) (Homo sapiens (Human), UniProt P22607, V555M); experiment: as above; conditions: V555M mutant
# In short: as §4
# FGFR4 = FGFR4 (Homo sapiens (Human), UniProt P22455); experiment: as above
# In short: as §4
# Chain of FGFR3 (V555M) (P22607 23-806 V555M): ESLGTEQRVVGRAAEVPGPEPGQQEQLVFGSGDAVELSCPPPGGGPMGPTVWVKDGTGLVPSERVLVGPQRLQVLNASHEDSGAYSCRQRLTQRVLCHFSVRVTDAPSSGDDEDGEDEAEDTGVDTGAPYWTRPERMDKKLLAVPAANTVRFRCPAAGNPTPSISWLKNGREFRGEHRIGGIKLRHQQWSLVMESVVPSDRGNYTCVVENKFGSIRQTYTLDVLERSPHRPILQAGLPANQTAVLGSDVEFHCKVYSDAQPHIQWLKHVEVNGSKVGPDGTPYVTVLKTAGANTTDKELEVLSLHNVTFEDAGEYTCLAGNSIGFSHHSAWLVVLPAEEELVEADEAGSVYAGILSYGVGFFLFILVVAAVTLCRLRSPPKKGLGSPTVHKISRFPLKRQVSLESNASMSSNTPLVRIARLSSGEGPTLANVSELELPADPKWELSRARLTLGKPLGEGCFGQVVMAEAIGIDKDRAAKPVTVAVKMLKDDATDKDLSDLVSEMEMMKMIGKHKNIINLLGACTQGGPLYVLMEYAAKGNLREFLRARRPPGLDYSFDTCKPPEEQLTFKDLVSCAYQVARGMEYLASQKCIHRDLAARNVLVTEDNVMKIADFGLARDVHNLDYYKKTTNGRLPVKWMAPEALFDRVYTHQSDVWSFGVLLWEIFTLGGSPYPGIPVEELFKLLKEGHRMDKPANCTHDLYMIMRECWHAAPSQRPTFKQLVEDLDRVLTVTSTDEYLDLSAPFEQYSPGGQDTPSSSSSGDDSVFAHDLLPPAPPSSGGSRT
# Chain of FGFR3-BAIAP2L1 Ba/F3 cells (P22607 23-806 limits assumed, change not shown): as the sequence (P22607 23-806 V555M) above, with M533V counted along it
# Chain of FGFR3 (P22607 23-806): as the sequence (P22607 23-806 V555M) above, with M533V counted along it
# Chain of FGFR2 (P21802 22-821): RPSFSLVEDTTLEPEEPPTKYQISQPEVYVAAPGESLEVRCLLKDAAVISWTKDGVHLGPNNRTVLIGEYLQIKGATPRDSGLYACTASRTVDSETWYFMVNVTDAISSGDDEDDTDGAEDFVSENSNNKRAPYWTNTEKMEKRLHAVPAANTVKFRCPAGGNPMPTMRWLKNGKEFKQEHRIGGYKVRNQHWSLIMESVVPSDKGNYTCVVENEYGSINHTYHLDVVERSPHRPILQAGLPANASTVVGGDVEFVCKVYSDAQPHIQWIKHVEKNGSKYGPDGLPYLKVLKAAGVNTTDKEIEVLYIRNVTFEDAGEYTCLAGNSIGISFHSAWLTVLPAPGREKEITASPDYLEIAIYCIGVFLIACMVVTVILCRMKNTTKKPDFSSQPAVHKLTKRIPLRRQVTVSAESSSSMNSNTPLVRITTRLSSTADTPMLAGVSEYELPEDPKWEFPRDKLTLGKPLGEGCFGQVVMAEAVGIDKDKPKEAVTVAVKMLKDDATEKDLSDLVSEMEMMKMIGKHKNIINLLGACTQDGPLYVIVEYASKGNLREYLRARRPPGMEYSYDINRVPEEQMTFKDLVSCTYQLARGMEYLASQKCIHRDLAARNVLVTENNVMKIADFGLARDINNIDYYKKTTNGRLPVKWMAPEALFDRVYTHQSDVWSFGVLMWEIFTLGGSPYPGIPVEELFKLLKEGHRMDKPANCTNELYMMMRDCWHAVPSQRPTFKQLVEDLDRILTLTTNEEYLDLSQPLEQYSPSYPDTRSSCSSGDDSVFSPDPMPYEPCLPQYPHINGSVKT
# Chain of FGFR1-BCR Ba/F3 cells (P11362 22-822 limits assumed, change not shown): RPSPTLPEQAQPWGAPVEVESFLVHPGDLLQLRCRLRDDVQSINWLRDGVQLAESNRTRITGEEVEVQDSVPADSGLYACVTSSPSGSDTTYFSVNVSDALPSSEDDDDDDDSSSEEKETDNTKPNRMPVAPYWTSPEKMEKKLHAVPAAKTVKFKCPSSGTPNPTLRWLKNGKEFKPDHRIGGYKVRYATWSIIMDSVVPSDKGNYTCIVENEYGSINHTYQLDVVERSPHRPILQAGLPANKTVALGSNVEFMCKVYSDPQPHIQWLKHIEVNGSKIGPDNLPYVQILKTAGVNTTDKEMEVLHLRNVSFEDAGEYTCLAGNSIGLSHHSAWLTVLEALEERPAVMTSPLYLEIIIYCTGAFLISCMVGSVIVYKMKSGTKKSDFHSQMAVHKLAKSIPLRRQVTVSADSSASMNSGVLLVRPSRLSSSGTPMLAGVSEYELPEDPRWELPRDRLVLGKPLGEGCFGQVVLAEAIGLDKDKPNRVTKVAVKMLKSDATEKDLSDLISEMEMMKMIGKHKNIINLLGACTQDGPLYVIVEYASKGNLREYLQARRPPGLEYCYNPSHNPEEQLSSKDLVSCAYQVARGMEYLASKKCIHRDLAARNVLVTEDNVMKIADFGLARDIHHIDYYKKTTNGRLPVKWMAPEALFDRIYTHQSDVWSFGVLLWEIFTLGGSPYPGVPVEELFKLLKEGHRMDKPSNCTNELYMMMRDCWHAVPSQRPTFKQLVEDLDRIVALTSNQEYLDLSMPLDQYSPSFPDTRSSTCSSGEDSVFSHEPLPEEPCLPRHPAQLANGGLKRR
# Chain of FGFR1 (P11362 22-822): as the sequence (P11362 22-822 limits assumed, change not shown) above
# Chain of FGFR4 (P22455 22-802): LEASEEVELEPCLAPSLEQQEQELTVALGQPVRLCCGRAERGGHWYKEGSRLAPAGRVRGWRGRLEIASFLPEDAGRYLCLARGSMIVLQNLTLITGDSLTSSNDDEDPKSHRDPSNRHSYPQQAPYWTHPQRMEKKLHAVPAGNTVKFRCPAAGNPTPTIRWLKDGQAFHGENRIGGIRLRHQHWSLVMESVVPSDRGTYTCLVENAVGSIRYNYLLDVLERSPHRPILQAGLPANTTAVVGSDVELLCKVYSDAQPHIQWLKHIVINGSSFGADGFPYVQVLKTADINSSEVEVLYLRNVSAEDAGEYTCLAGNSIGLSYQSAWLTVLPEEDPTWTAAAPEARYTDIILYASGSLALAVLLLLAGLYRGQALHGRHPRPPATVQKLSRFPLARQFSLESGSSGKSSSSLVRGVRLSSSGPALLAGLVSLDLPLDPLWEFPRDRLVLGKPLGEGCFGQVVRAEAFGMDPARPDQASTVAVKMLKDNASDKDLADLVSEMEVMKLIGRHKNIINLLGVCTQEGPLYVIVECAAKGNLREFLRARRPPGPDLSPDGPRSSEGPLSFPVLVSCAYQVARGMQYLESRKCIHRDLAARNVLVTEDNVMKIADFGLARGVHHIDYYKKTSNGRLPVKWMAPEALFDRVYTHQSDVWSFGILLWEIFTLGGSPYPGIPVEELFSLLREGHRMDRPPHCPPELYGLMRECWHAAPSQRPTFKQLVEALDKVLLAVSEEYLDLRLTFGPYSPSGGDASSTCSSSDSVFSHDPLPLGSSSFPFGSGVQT
Structure (SMILES),Ba/F3 FGFR1/FGFR3 Selectivity [1],IC50 [1] [nM],IC50 (FGFR1-BCR Ba/F3 cells) [nM],Kd (FGFR1) [nM],Kd (FGFR2) [nM],Kd (FGFR3) [nM],Kd (FGFR3 (V555M)) [nM],Kd (FGFR4) [nM]
"COC(=O)N1CCN(c2ccc(-c3n[nH]c4ccc(O[C@H](C)c5c(Cl)cncc5Cl)cc34)cn2)CC1 [Example 7, Methyl 4-[5-[5-[(1R)-1-(3,5-dichloro-4-pyridyl)ethoxy]-1H-indazol-3-yl]-2-pyridyl]piperazine-1-carboxylate]",15,20 to 100,> 300,1 to 20,20 to 100,1 to 20,1 to 20,1 to 20
"C[C@@H](Oc1ccc2[nH]nc(-c3cnc(N4CCC5(CC4)CNC(=O)N5)nc3)c2c1)c1c(Cl)cncc1Cl [Example 53, 8-[5-[5-[(1R)-1-(3,5-dichloro-4-pyridyl)ethoxy]-1H-indazol-3-yl]pyrimidin-2-yl]-1,3,8-triazaspiro-[4.5]decan-2-one]",11,20 to 100,100 to 300,20 to 100,20 to 100,1 to 20,1 to 20,1 to 20
"C[C@@H](Oc1ccc2[nH]nc(-c3ccc(N4CCNCC4=O)nc3)c2c1)c1c(Cl)cncc1Cl [Example 37, 1-[5-[5-[(1R)-1-(3,5-dichloro-4-pyridyl)ethoxy]-1H-indazol-3-yl]-2-pyridyl]piperazin-2-one]",12,1 to 20,100 to 300,20 to 100,20 to 100,1 to 20,1 to 20,1 to 20
"Cc1cnnc(C)c1[C@@H](C)Oc1ccc2[nH]nc(-c3cnc(N4CC5(CCS(=O)(=O)C5)C4)nc3)c2c1 [Example 141, 2-[5-[5-[(1R)-1-(3,5-dimethylpyridazin-4-yl)ethoxy]-1H-indazol-3-yl]pyrimidin-2-yl]-6λ^6-thia-2-azaspiro[3.4]octane 6,6-dioxide]",3,> 300,> 300,20 to 100,20 to 100,1 to 20,1 to 20,1 to 20
"COC(=O)N1CC2(C1)CN(c1ncc(-c3n[nH]c4ccc(O[C@H](C)c5c(C)cnnc5C)cc34)cn1)C2 [Example 143, methyl 6-[5-[5-[(1R)-1-(3,5-dimethylpyridazin-4-yl)ethoxy]-1H-indazol-3-yl]pyrimidin-2-yl]-2,6-diazaspiro[3.3]heptane-2-carboxylate]",14,100 to 300,> 300,100 to 300,20 to 100,1 to 20,1 to 20,1 to 20
"C[C@@H](Oc1ccc2[nH]nc(-c3ccc(N4CC5(CCCN(S(C)(=O)=O)C5)C4)nc3)c2c1)c1c(Cl)cncc1Cl [Example 162, 5-[(1R)-1-(3,5-dichloro-4-pyridyl)ethoxy]-3-[6-(8-methylsulfonyl-2,8-diazaspiro[3.5]nonan-2-yl)-3-pyridyl]-1H-indazole]",12,1 to 20,100 to 300,20 to 100,1 to 20,1 to 20,1 to 20,1 to 20
"Cc1ncc(Cl)c([C@@H](C)Oc2ccc3[nH]nc(-c4cnn(C5CCOCC5)c4)c3c2)c1Cl [Example 104, 5-[(1R)-1-(3,5-dichloro-2-methyl-4-pyridyl)ethoxy]-3-(1-tetrahydropyran-4-ylpyrazol-4-yl)-1H-indazole]",10,20 to 100,> 300,20 to 100,1 to 20,1 to 20,1 to 20,20 to 100
"C[C@@H](Oc1ccc2[nH]nc(-c3cnn(C4CCN(C(=O)CCN(C)C)CC4)c3)c2c1)c1c(Cl)cncc1Cl [Example 82, 1-[4-[4-[5-[(1R)-1-(3,5-dichloro-4-pyridyl)ethoxy]-1H-indazol-3-yl]pyrazol-1-yl]-1-piperidyl]-3-(dimethylamino)propan-1-one]",11,1 to 20,100 to 300,1 to 20,1 to 20,1 to 20,1 to 20,20 to 100
"Cc1cnnc(C)c1[C@@H](C)Oc1ccc2[nH]nc(-c3ccc(N4CC5(C4)CN(S(C)(=O)=O)C5)nc3)c2c1 [Example 148, 5-[(1R)-1-(3,5-dimethylpyridazin-4-yl)ethoxy]-3-[6-(2-methylsulfonyl-2,6-diazaspiro[3.3]heptan-6-yl)-3-pyridyl]-1H-indazole]",16,20 to 100,> 300,1 to 20,1 to 20,1 to 20,1 to 20,1 to 20
"C[C@@H](Oc1ccc2[nH]nc(-c3ccc(N4CC5(CCN5S(C)(=O)=O)C4)nc3)c2c1)c1c(Cl)cncc1Cl [Example 100, 5-[(1R)-1-(3,5-dichloro-4-pyridyl)ethoxy]-3-[6-(1-methylsulfonyl-1,6-diazaspiro[3.3]heptan-6-yl)-3-pyridyl]-1H-indazole]",22,1 to 20,> 300,1 to 20,1 to 20,1 to 20,1 to 20,1 to 20
"C[C@@H](Oc1ccc2[nH]nc(-c3cnc(N4CCC5(CC4)CCS(=O)(=O)C5)nc3)c2c1)c1c(Cl)cncc1Cl [Example 57, 8-[5-[5-[(1R)-1-(3,5-dichloro-4-pyridyl)ethoxy]-1H-indazol-3-yl]pyrimidin-2-yl]-2λ^6-thia-8-azaspiro[4.5]decane 2,2-dioxide]",15,1 to 20,100 to 300,20 to 100,20 to 100,1 to 20,1 to 20,1 to 20
"CCS(=O)(=O)N1CC2(CN(c3ncc(-c4n[nH]c5ccc(O[C@H](C)c6c(Cl)cncc6Cl)cc45)cn3)C2)C1 [Example 128, 5-[(1R)-1-(3,5-dichloro-4-pyridyl)ethoxy]-3-[2-(2-ethylsulfonyl-2,6-diazaspiro[3.3]heptan-6-yl)pyrimidin-5-yl]-1H-indazole]",8,20 to 100,> 300,20 to 100,20 to 100,1 to 20,1 to 20,1 to 20
"C[C@@H](Oc1ccc2[nH]nc(-c3cnc(N4CCC5(CCC(=O)N5C)CC4)c(F)c3)c2c1)c1c(Cl)cncc1Cl [Example 43, 8-[5-[5-[(1R)-1-(3,5-dichloro-4-pyridyl)ethoxy]-1H-indazol-3-yl]-3-fluoro-2-pyridyl]-1-methyl-1,8-diazaspiro[4.5]decan-2-one]",10,1 to 20,20 to 100,1 to 20,1 to 20,1 to 20,1 to 20,1 to 20
"C[C@@H](Oc1ccc2[nH]nc(-c3ccc(F)nc3)c2c1)c1c(Cl)cncc1Cl [Example 25, 5-[(1R)-1-(3,5-Dichloro-4-pyridyl)ethoxy]-3-(6-fluoro-3-pyridyl)-1H-indazole]",22,20 to 100,> 300,20 to 100,20 to 100,1 to 20,1 to 20,20 to 100
"CCOC(=O)N1CC2(C1)CN(c1ncc(-c3n[nH]c4ccc(O[C@H](C)c5c(C)cnnc5C)cc34)cn1)C2 [Example 146, ethyl 6-[5-[5-[(1R)-1-(3,5-dimethylpyridazin-4-yl)ethoxy]-1H-indazol-3-yl]pyrimidin-2-yl]-2,6-diazaspiro[3.3]heptane-2-carboxylate]",15,100 to 300,> 300,100 to 300,20 to 100,1 to 20,1 to 20,1 to 20
